# From patent publication US8835440B2, “Cyclic pyrimidin-4-carboxamides as CCR2 receptor antagonists for treatment of inflammation, asthma and COPD” (Boehringer Ingelheim International GmbH, priority 2008, dated 2014)
# Molecular target: T1, CCR2 (Homo sapiens, UniProt P41597)
# T1 construct: Membranes were prepared from THP-1 cells; endogenous in cells; host or cells: THP-1 cells (membrane preparation)
# T1 sequence (P41597 1-360 isoform P41597-2): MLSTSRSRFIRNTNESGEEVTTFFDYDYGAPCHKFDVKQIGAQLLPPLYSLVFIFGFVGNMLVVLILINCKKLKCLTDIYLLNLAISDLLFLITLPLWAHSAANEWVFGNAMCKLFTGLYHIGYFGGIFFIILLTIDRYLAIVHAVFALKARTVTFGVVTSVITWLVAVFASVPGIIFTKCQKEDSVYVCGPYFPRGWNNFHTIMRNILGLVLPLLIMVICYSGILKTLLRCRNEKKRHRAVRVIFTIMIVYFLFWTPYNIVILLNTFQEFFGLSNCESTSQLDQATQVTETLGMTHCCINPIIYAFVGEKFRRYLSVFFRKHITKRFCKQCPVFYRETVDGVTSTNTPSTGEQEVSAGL
# Test: CCR2 receptor membrane binding assay ([125I]MCP-1, THP-1 cell membranes, SPA beads)
# Conditions: for remaining activity at 10 µM: read-out: CCR2 % ctrl @ 10 μM; for Ki: dissociation constant hKi, [125I]MCP-1 binding to THP-1 membranes
# Summary of the method: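 Human THP-1 monocytic cell membranes, pre-coupled to WGA-PVT SPA beads, were incubated with compound and [125I]MCP-1 (ca. 25000 cpm) in 25 mM HEPES pH 7.2, 5 mM MgCl2, 0.5 mM CaCl2, 0.2% BSA, at 1% DMSO final. Bound radioactivity was counted after 8 h, and Ki was obtained by iterative mass-action fitting.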
# [1] = @ 10 μM test compound, THP-1 membranes
Structure (SMILES),remaining activity at 10 µM [1],Ki,"CCR2 % ctrl @ 10 μM (@ 10 μM test compound, THP-1 membranes, 10 µM)"
Cc1c(NCC2COc3ccccc3C2)ncnc1C(=O)N1CCC(N2CCC(N(C)S(C)(=O)=O)CC2)CC1 (stereo not drawn) [Example 57],10%,93 nM,–
Cc1c(NCCc2ccc(Cl)cc2)ncnc1C(=O)N1CCC(N2CCC(O)CC2)CC1 [Example 124],20%,361 nM,–
Cc1c(NCc2ccc(C(C)(C)C)cc2)ncnc1C(=O)N1CCC(N2CCC(NS(C)(=O)=O)CC2)CC1 [Example 69],7%,63 nM,–
Cc1c(NCc2ccc(Cl)c(Cl)c2)ncnc1C(=O)N1CCC(N2CCOCC2)CC1 [Example 107],12%,232 nM,–
Cc1c(NCc2ccc(Cl)c(Cl)c2)ncnc1C(=O)N1CCC(N2CCC3(CCNC3=O)CC2)CC1 [Example 190],27%,783 nM,–
COc1ccc(CCNc2ncnc(C(=O)N3CCC(N4CCC(O)CC4)CC3)c2C)cc1Cl [Example 105],31%,687 nM,–
Cc1c(NCC2COc3ccccc3C2)ncnc1C(=O)N1CCC(N2CCC(NS(C)(=O)=O)CC2)CC1 (stereo not drawn) [Example 71],12%,117 nM,–
Cc1c(NCc2ccc(C(C)(C)C)cc2)ncnc1C(=O)N1CCC(N2CCC(c3ccccc3)CC2)CC1 [Example 225],0%,21 nM,–
CNC(=O)C1CN(C2CCN(C(=O)c3ncnc(NCc4ccc(Cl)c(Cl)c4)c3C)CC2)C1 [Example 193],35%,1540 nM,–
CCc1c(NCCc2ccc(Cl)c(Cl)c2)ncnc1C(=O)N1CCC(N2CCC(O)CC2)CC1 [Example 280],32%,1440 nM,–
Cc1c(NCCc2ccc(Cl)c(Cl)c2)ncnc1C(=O)N1CCC(N2CCN(S(C)(=O)=O)CC2)CC1 [Example 285],35%,1310 nM,–
Cc1c(NCCc2ccccc2)ncnc1C(=O)N1CCC(N2CCC(O)CC2)CC1 [Example 99],32%,1830 nM,–
Cc1c(NCc2ccc(C(C)(C)C)cc2)ncnc1C(=O)N1CCC(N2CCC(n3c(C)nnc3C)CC2)CC1 [Example 212],24%,731 nM,–
Cc1nc(NCc2ccc(Cl)c(Cl)c2)c(C)c(C(=O)N2CCC(N3CCC(O)CC3)CC2)n1 [Example 92],14%,175 nM,–
Cc1nc(NCC2COc3ccccc3C2)c(C)c(C(=O)N2CCC(N3CCC(NS(C)(=O)=O)CC3)CC2)n1 (stereo not drawn) [Example 90],10%,127 nM,–
Cc1c(NCc2ccc(Cl)c(Cl)c2)ncnc1C(=O)N1CCC(N2CC[C@H](N(C)S(C)(=O)=O)C2)CC1 [Example 226],36%,1170 nM,–
O=C(c1ncnc(NCc2cccc(-c3ccccc3)c2)c1Br)N1CCC(N2CCC(O)CC2)CC1 [Example 278],32%,1080 nM,–
Cc1ccc(CNc2ncnc(C(=O)N3CCC(N4CCOCC4)CC3)c2C)cc1Cl [Example 43],17%,566 nM,–
Cc1c(NCc2ccc(C(C)(C)C)cc2)ncnc1C(=O)N1CCCN(C2CCCC2)CC1 [Example 286],19%,965 nM,–
Cc1c(NC[C@H]2CCN(c3ccccc3)C2)ncnc1C(=O)N1CCC(N2CCC(N(C)S(C)(=O)=O)CC2)CC1 [Example 156],8%,18 nM,–

Structure (SMILES),remaining activity at 10 µM [1],Ki,"CCR2 % ctrl @ 10 μM (@ 10 μM test compound, THP-1 membranes, 10 µM)"
Cc1c(NCc2ccc(Cl)c(Cl)c2)ncnc1C(=O)N1CCC(N2CCC(O)CC2)CC1 [Example 109],11%,213 nM,–
Cc1c(NCc2ccc(Cl)c(Cl)c2)ncnc1C(=O)N1CCC(N2CCC(S(N)(=O)=O)CC2)CC1 [Example 228],16%,331 nM,–
Cc1c(NCCc2ccc(Cl)c(Cl)c2)ncnc1C(=O)N1CCC(C(N)=O)(N2CCCCC2)CC1 [Example 252],6%,38 nM,–
Cc1c(NCC2CCCC(c3ccccc3)C2)ncnc1C(=O)N1CCC(N2CCC(O)CC2)CC1 (stereo not drawn) [Example 114],8%,62 nM,–
Cc1c(NC[C@H]2CCC[C@@H](c3ccccc3)C2)ncnc1C(=O)N1CCC(N2CCC(N(C)S(C)(=O)=O)CC2)CC1 [Example 146],7%,3 nM,–
Cc1c(NCc2cccc(-c3ccccc3)c2)ncnc1C(=O)N1CCC(N2CCC(N(C)C)CC2)CC1 [Example 236],14%,175 nM,–
Cc1c(NCc2ccc(C(F)(F)F)cc2)ncnc1C(=O)N1CCC(N2CCC(O)CC2)CC1 [Example 9],32%,974 nM,–
CO[C@H]1CCN(C2CCN(C(=O)c3ncnc(NCc4ccc(C(C)(C)C)cc4)c3C)CC2)C1 [Example 220],27%,979 nM,–
Cc1c(NCc2ccc(C(C)(C)C)cc2)ncnc1C(=O)N1CCC(N2CCC(S(=O)(=O)N(C)C)CC2)CC1 [Example 196],19%,666 nM,–
Cc1c(NCc2ccc(Cl)c(Cl)c2)ncnc1C(=O)N1CCC(N2CC[C@@H](NS(C)(=O)=O)C2)CC1 [Example 259],16%,277 nM,–
Cc1ccc(CNc2ncnc(C(=O)N3CCC(N4CCCCC4)CC3)c2C)cc1F [Example 137],–,634 nM,14 % ctrl
Cc1c(NCc2ccc(Cl)c(F)c2)ncnc1C(=O)N1CCC(N2CCC(O)CC2)CC1 [Example 117],19%,285 nM,–
Cc1c(NCc2ccc(Cl)c(Cl)c2)ncnc1C(=O)N1CCC(N2CCC(N(C)S(C)(=O)=O)CC2)CC1 [Example 255],5%,33 nM,–
Cc1c(NCc2ccc(C(C)(C)C)cc2)ncnc1C(=O)N1CCC(N2CC(N(C)S(C)(=O)=O)C2)CC1 [Example 222],31%,1310 nM,–
CC(=O)NC1CCN(C2CCN(C(=O)c3ncnc(NCCc4ccc(Cl)c(Cl)c4)c3C)CC2)CC1 [Example 171],16%,356 nM,–
Cc1c(NCc2ccc(C(F)(F)F)c(Cl)c2)ncnc1C(=O)N1CCC(N2CCOCC2)CC1 [Example 47],14%,222 nM,–
COc1ccc(CNc2ncnc(C(=O)N3CCC(N4CCC(N(C)S(C)(=O)=O)CC4)CC3)c2C)cc1 [Example 67],27%,1420 nM,–
Cc1c(NC2CCCCC2)ncnc1C(=O)N1CCC(N2CCC(O)CC2)CC1 [Example 28],58%,4180 nM,–
Cc1c(NCC2CCC(c3ccccc3)CC2)ncnc1C(=O)N1CCC(N2CCC(O)CC2)CC1 (stereo not drawn) [Example 121],15%,147 nM,–

# Further lines, results first:
remaining activity at 10 µM [1],Ki,"CCR2 % ctrl @ 10 μM (@ 10 μM test compound, THP-1 membranes, 10 µM)",Structure (SMILES)
–,372 nM,–,C#Cc1c(NC[C@H]2CCC[C@@H](c3ccccc3)C2)ncnc1C(=O)N1CCC(N2CCC(N(C)S(C)(=O)=O)CC2)CC1 [Example 275dl]
–,54 nM,–,Cc1c(NCC2Cc3cc(Cl)ccc3O2)ncnc1C(=O)N1CCC(N2CCC(N(C)S(C)(=O)=O)CC2)CC1 (stereo not drawn) [Example 159rb]
–,13 nM,–,Cc1c(NC[C@H]2C[C@H](c3ccc(Cl)cc3)C2)ncnc1C(=O)N1CCC(N2CCC(N(C)S(C)(=O)=O)CC2)CC1 [Example 159tb]
–,29 nM,–,Cc1ccc(C2CCC(CNc3nc(C)nc(C(=O)N4CCC(N5CCC(N(C)S(C)(=O)=O)CC5)CC4)c3C)O2)cc1 (stereo not drawn) [Example 159oa]
–,1 nM,–,CO[C@@H]1COCC[C@@H]1NC1CCN(C(=O)c2ncnc(NC[C@H]3CCC[C@@H](c4ccccc4)C3)c2C)CC1 [Example 275di]
–,16 nM,–,Cc1c(NCC2CCCC(c3cccc(F)c3)C2)ncnc1C(=O)N1CCC(N2CCC(N(C)S(C)(=O)=O)CC2)CC1 (stereo not drawn) [Example 159db]
–,537 nM,–,Cc1c(NCc2ccc(C(C)(C)C)cc2)ncnc1C(=O)N1CCC(N2CCC(Cc3ccc(F)c(F)c3)CC2)CC1 [Example 228gl]
9%,1560 nM,–,Cc1c(NCc2ccc(C(C)(C)C)cc2)ncnc1C(=O)N1CCC(N(C)C2CCCOC2)CC1 (stereo not drawn) [Example 228a]
–,17 nM,–,Cc1cccc([C@H]2CC[C@H](CNc3ncnc(C(=O)N4CCC(N5CCC(N(C)S(C)(=O)=O)CC5)CC4)c3C)O2)c1 [Example 159ia]
–,19 nM,–,Cc1nc(NCC2CCC(c3cccc(C(F)(F)F)c3)O2)c(C)c(C(=O)N2CCC(N3CCC(N(C)S(C)(=O)=O)CC3)CC2)n1 (stereo not drawn) [Example 159qa]
–,233 nM,–,Cc1c(NCC2CCCC(c3ccccn3)C2)ncnc1C(=O)N1CCC(N2CCC(N(C)S(C)(=O)=O)CC2)CC1 (stereo not drawn) [Example 159n]
–,12 nM,–,COC1CCN(C2CCN(C(=O)c3ncnc(NCC4CCCC(c5ccc(Cl)cc5)C4)c3C)CC2)CC1 (stereo not drawn) [Example 159lb]
–,15 nM,–,Cc1c(NC[C@H]2C[C@@H](c3ccccc3)C2)ncnc1C(=O)N1CCC(N2CCC(N(C)S(C)(=O)=O)CC2)CC1 [Example 159yb]
–,13 nM,–,COC1COCCC1NC1CCN(C(=O)c2ncnc(NCC3Cc4ccccc4C3)c2C)CC1 (stereo not drawn) [Example 159fc]
6%,169 nM,–,COC1CC(F)(F)CCC1NC1CCN(C(=O)c2ncnc(NCc3ccc(C(C)(C)C)cc3)c2C)CC1 (stereo not drawn) [Example 228g]
–,35 nM,–,Cc1c(NCC2CCCCCC2)ncnc1C(=O)N1CCC(N2CCC(N(C)S(C)(=O)=O)CC2)CC1 [Example 159fa]
